Data reported in patent EP1306084A1, “Compositions for the control of parasitic infestations in fish” (Alpharma AS, priority 1998, dated 1999).
Where two headings read alike, the source gives them in different places.

Assays:
[1] = tested on: sea lice; test: Oral treatment in freshwater before sea transfer, sea lice counts after natural infection (Example 4); assay type: in vivo, salmon (Salmo salar)
Method: (§1) The treatment dosage was 9 mg hexaflumuron per kg fish per day for 10 days. This is indicated by "Groups/Timepoints" in the figure; • Figure 2 relates to the trial in Example 2 that was carried out on Atlantic salmon (Salmo salar). […] The treatment dosage varied between 3 - 9 mg hexaflumuron and 9- 12 mg fluazuron per kg fish per day for 7 days. This is indicated by "Groups/Timepoints" in the diagram. […] The treated groups are compared to an untreated control group. The treatment dosage was 4 mg hexaflumuron per kg fish per day for 5 days. This is indicated by "Groups/Timepoints" in the figure. Cage 2 = controls, Cage 4-6 = treated groups, 16.6.97 = time point for sea transfer and 5.8.97= controls treated by bathing with deltamethrin; • Figure 4 relates to the trial described in Example 5, which was carried out on sea trout (Salmo trutta). […] The treated groups are compared with an untreated control group. The dosage for oral treatment was 4 mg hexaflumuron per kilo fish per day for 5 days, and 5 ppm hexaflumuron as a 30 minute bath treatment. This is indicated by "Groups/Timepoints" in the figure. Cage 1.4 = Controls, cage 1.3 = Oral treatment, cage 1.2 = Bath treatment. […] The treated groups are compared with an untreated control group, and one group that has been treated orally with teflubenzuron (10 mg/kg of teflubenzuron per kg fish per day for 7 days). The dosage for oral treatment was 5.6 mg hexaflumuron per kg fish per day for 7 days, and 5 ppm hexaflumuron as a 30 minute bath treatment. […] End of treatment: 22.10.97, Sea transfer: 23.10.97. […]
About 2,500 salmon (Salmo salar) of average weight 42 grams were treated orally with a daily dosage of 4 mg hexaflumuron per kilo fish for 5 days. […] The number of lice on 10 fish from each cage were counted every third week to check if there was any difference in the number of lice in the cages. […]

[2] = tested on: sea lice; test: Oral or bath treatment in freshwater before sea transfer, sea lice counts after natural infection (Example 5); assay type: in vivo, sea trout (Salmo trutta); settings: oral 4 mg per kg daily for 5 days or bath 5 ppm for 30 minutes
Method: as §1, with “23.10.97. T1 = 3 weeks post end of treatment, T2 = 5 weeks post end of treatment, T3 = 9 weeks post end of treatment, T4 = 12 weeks post end of treatment; • Figure 6 relates to the trial in Example 6 at time points 4-6, with the same trial parameters as for Figure 5.” for “23.10.97.”
About 300 sea trout (Salmo trutta) of an average weight of 160 grams were divided into three groups of 100 fish each. […] Lice from 6-10 fish from each cage were counted every third week to assess whether there was any difference in the number of lice between the cages. […]

[3] = Chemical analysis of muscle with skin after injection (Example 7); assay type: in vivo, salmon (Salmo salar); settings: fish, 50 mg/kg; for concentration at 8280 h: T11, 345 days after injection, read-out: muscle/skin concentration of hexaflumuron
Method: Tissue samples (muscle with skin) for chemical analysis were collected from three fish at each sample point in time throughout the entire trial period in order to monitor the concentrations of hexaflumuron. At sea water transfer, the muscle/skin concentrations were between 2 and 3 µg hexaflumuron per g of tissue. […] At T8, i.e. 238 days after vaccination, the concentration of hexaflumuron varied between 0.49 and 0.53 µg per g of tissue. At T11, i.e. 345 days after injection (322 days after sea water transfer) the muscle/skin concentration of hexaflumuron in the two groups was 0.13 and 0.11 µg/g tissue, respectively. At the same point in time, different stages of sea lice had become established on these fish.

O=C(NC(=O)c1c(F)cccc1F)Nc1cc(Cl)c(OC(F)(F)C(F)F)c(Cl)c1 [hexaflumuron]
protection from sea lice infestation after transfer to sea ([1]; oral 4 mg per kilo fish daily for 5 days in freshwater): 6-9 weeks | number of lice larger than Chalimus II versus control ([1]; oral 4 mg per kilo fish daily for 5 days, 3 and 6 weeks after sea transfer): significantly lower | protection after transfer to sea [2]: at least 8 weeks | number of lice larger than Chalimus II versus control ([2]; 2, 5 and 8 weeks after sea transfer): significantly lower | concentration at 5712 h ([3]; T8, 238 days after vaccination, read-out: concentration of hexaflumuron in muscle/skin): 490 to 530 ng/g | concentration at 8280 h ([3]; first-named group): 130 ng/g | concentration at 8280 h ([3]; second-named group): 110 ng/g | concentration at 552 h ([3]; at sea water transfer (23 days after injection of about 50 mg/kg), read-out: muscle/skin concentrations): 2000 to 3000 ng/g
